Where a name gives a salt, the structure may show the parent alone. Read-outs that look alike come from different tables or passages of the source.
Experiments:
Assay type in all cases: biochemical
[1] = molecular target: T1, human JAK2 (a.a. 828-1132) (Homo sapiens, UniProt O60674); assay: In vitro JAK kinase assay (HTRF, phosphorylation of a biotinylated peptide), JAK2
T1 construct: JAK2 (a.a. 828-1132); His tag (N); made in house; host or cells: insect cells (baculovirus)
How it was run: (§1)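 Kinase reactions ran at room temperature for 1 h with ATP matched per isoform (JAK1 90 μM, JAK2 30 μM, JAK3 3 μM). After an EDTA stop, the phosphorylated biotin-peptide was read by HTRF using Eu-Py20 and SA-APC after 40 min binding.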

[2] = molecular target: T2, human JAK3 (a.a. 781-1124) (Homo sapiens, UniProt P52333); assay: In vitro JAK kinase assay (HTRF, phosphorylation of a biotinylated peptide), JAK3
T2 construct: JAK3 (a.a. 781-1124); His tag (N); made in house; host or cells: insect cells (baculovirus)
How it was run: as §1

[3] = molecular target: T3, human JAK1 (a.a. 837-1142) (Homo sapiens, UniProt P23458); assay: In vitro JAK kinase assay (HTRF, phosphorylation of a biotinylated peptide), JAK1; conditions: read-out: JAK1 IC50
T3 construct: human JAK1 (a.a. 837-1142); His tag (N); made in house; host or cells: insect cells (baculovirus)
How it was run: as §1

TYK2 = TYK2 (Homo sapiens, UniProt P29597); assay: TYK2 kinase inhibition (Table A1)
TYK2, sequence (P29597 whole entry): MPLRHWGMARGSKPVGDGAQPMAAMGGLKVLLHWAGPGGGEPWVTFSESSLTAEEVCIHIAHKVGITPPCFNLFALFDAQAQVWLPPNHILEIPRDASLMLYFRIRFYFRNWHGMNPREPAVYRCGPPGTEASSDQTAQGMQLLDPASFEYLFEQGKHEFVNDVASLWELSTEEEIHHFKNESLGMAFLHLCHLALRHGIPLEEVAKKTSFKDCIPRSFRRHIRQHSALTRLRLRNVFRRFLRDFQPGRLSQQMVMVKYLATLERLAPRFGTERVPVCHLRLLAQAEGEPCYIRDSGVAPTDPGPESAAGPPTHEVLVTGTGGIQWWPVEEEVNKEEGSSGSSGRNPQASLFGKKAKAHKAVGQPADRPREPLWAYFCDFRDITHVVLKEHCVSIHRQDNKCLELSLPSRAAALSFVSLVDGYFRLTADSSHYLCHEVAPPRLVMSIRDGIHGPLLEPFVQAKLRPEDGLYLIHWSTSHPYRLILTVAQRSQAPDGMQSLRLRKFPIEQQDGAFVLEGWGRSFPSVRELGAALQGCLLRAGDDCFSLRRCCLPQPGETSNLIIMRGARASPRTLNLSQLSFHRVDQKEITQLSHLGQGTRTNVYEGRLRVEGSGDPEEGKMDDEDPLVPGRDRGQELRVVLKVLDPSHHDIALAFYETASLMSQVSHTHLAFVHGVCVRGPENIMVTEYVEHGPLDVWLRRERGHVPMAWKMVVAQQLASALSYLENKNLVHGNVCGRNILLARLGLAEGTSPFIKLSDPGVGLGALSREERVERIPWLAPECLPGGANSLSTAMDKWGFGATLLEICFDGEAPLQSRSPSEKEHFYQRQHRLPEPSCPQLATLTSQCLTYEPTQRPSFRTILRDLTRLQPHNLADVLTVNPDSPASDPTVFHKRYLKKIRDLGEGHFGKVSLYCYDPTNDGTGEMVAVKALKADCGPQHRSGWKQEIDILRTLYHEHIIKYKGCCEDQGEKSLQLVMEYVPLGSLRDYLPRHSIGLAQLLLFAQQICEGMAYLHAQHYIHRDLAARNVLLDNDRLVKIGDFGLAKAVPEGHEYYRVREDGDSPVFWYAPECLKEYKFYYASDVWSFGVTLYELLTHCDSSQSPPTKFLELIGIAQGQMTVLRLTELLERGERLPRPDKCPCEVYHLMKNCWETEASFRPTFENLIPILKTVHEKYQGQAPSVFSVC

T2 sequence (P52333 781-1124): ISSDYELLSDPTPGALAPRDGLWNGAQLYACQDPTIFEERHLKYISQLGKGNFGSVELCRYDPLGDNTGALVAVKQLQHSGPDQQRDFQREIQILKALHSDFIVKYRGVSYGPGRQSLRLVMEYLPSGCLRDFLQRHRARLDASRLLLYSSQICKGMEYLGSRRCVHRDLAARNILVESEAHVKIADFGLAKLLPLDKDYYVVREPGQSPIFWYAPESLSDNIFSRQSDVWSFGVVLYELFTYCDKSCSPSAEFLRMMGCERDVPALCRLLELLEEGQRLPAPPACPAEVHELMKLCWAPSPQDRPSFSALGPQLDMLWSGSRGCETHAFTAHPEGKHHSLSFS
T1 sequence (O60674 828-1132): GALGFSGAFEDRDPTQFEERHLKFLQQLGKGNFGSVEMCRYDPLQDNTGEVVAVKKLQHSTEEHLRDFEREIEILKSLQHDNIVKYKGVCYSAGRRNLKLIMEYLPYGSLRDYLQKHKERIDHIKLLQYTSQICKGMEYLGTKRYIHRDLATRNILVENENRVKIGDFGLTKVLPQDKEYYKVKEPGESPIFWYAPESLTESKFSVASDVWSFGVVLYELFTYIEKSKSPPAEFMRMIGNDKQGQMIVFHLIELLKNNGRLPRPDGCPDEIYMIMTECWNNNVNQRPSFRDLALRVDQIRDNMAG
T3 sequence (P23458 849-1154): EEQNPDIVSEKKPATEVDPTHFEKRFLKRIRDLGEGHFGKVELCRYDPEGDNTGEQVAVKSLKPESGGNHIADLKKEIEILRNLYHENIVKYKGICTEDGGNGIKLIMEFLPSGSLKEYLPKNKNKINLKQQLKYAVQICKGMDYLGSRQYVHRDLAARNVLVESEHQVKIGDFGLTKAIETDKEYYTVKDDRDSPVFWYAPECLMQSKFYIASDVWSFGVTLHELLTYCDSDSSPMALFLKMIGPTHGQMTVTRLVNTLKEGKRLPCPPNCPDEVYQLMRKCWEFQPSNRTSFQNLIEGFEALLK

Compound	IC50 ([1]; Table D1) [µM]	IC50 ([2]; Table D1) [µM]	IC50 ([3]; Table D1) [µM]	IC50 (TYK2; Table D1) [µM]	IC50 [1] [µM]	IC50 [2] [µM]	IC50 [3] [µM]	IC50 (TYK2) [µM]	IC50 ([1]; method AA1 (30 μM ATP) or AA2 (1000 μM ATP), not stated per value) [µM]	IC50 ([2]; method AA1 (3 μM ATP) or AA2 (1000 μM ATP), not stated per value) [µM]	IC50 ([3]; method AA1 (90 μM ATP) or AA2 (1000 μM ATP), not stated per value) [µM]
CC(=O)N1CCC(Nc2ccc3cc2CCc2cncc(c2)Nc2ncc(Cl)c(n2)N3)CC1 [Example D158, N-(1-Acetylpiperidin-4-yl)-6-chloro-2,4,8,18,22-pentaazatetracyclo[14.3.1.1(3,7).1(9,13)]docosa-1(20),3(22),4,6,9(21),10,12,16,18-nonaen-12-amine tris(trifluoroacetate)]	> 0.4	> 0.4	0.15	> 0.4							
O=C(Nc1ccc(F)cc1)N1CCC(CCOc2ccc3cc2CCc2cncc(c2)Nc2ncc(Cl)c(n2)N3)CC1 [Example D168, 4-(2-{[6-Chloro-2,4,8,18,22-pentaazatetracyclo[14.3.1.1(3,7).1(9,13)]docosa-1(20),3(22),4,6,9(21),10,12,16,18-nonaen-12-yl]oxy}ethyl)-N-(4-fluorophenyl)piperidine-1-carboxamide bis(trifluoroacetate)]	0.255	> 0.4	0.034	> 0.4							
Cc1cc(CC(=O)Nc2ccc3cc2CCc2cccc(c2)Nc2ncc(Cl)c(n2)N3)on1 [Example C30, N-[6-Chloro-2,4,8,22-tetraazatetracyclo[14.3.1.1(3,7).1(9,13)]docosa-1(20),3(22),4,6,9(21),10,12,16,18-nonaen-12-yl]-2-(3-methylisoxazol-5-yl)acetamide trifluoroacetate]					0.056	0.99	0.031	0.136			
O=C(COc1ccc2cc1CCc1cncc(c1)Nc1ncc(Cl)c(n1)N2)N1CCN(Cc2ccncc2)CC1 [Example D256, 6-Chloro-12-{2-oxo-2-[4-(pyridin-4-ylmethyl)piperazin-1-yl]ethoxy}-2,4,8,18,22-pentaazatetracyclo[14.3.1.1(3,7).1(9,13)]docosa-1(20),3(22),4,6,9(21),10,12,16,18-nonaene tris(trifluoroacetate)]	0.217	> 0.4	0.15	> 0.4							
O=C(Cc1c[nH]c2ccccc12)Nc1ccc2cc1CCc1cccc(c1)Nc1ncc(Cl)c(n1)N2 [Example C29, N-[6-Chloro-2,4,8,22-tetraazatetracyclo[14.3.1.1(3,7).1(9,13)]docosa-1(20),3(22),4,6,9(21),10,12,16,18-nonaen-12-yl]-2-(1H-indol-3-yl)acetamide bis(trifluoroacetate)]					0.068	1.03	0.043	0.227			
O=C(C[C@@H]1CCCNC1)Nc1ccc2cc1CCc1cncc(c1)Nc1ncc(Cl)c(n1)N2 [Example D194, N-[6-Chloro-2,4,8,18,22-pentaazatetracyclo[14.3.1.1(3,7).1(9,13)]docosa-1(20),3(22),4,6,9(21),10,12,16,18-nonaen-12-yl]-2-[(3S)-piperidin-3-yl]acetamidetris(trifluoroacetate)]	0.046	0.144	0.0058	0.023							
CC(=O)N1CCC(COc2ccc3cc2CCc2cncc(c2)Nc2ncc(Cl)c(n2)N3)C1 (stereo not shown) [Example C56, 12-[(1-Acetylpyrrolidin-3-yl)methoxy]-6-chloro-2,4,8,18,22-pentaazatetracyclo[14.3.1.1(3,7).1(9,13)]docosa-1(20),3(22),4,6,9(21),10,12,16,18-nonaene bis(trifluoroacetate)]					0.255	> 0.4	0.216	> 0.4			
O=C(C[C@H]1CCCN(C(=O)Nc2ccccc2)C1)Nc1ccc2cc1CCc1cncc(c1)Nc1ncc(Cl)c(n1)N2 [Example D199, (3R)-3-(2-{[6-Chloro-2,4,8,18,22-pentaazatetracyclo[14.3.1.1(3,7).1(9,13)]docosa-1(20),3(22),4,6,9(21),10,12,16,18-nonaen-12-yl]amino}-2-oxoethyl)-N-phenylpiperidine-1-carboxamide bis(trifluoroacetate)]	0.008	0.065	0.0057	0.021							
Cc1ccc(N2CCN(C(=O)COc3ccc4cc3CCc3cncc(c3)Nc3ncc(Cl)c(n3)N4)CC2)nc1 [Example D246, 6-Chloro-12-{2-[4-(5-methylpyridin-2-yl)piperazin-1-yl]-2-oxoethoxy}-2,4,8,18,22-pentaazatetracyclo[14.3.1.1(3,7).1(9,13)]docosa-1(20),3(22),4,6,9(21),10,12,16,18-nonaene tris(trifluoroacetate)]	0.226	> 0.4	0.03	> 0.4							
O=C(Nc1ccccc1)N1CCC(COc2ccc3cc2CCc2cncc(c2)Nc2ncc(Cl)c(n2)N3)C1 (stereo not shown) [Example C59, 3-({[6-Chloro-2,4,8,18,22-pentaazatetracyclo[14.3.1.1(3,7).1(9,13)]docosa-1(20),3(22),4,6,9(21),10,12,16,18-nonaen-12-yl]oxy}methyl)-N-phenylpyrrolidine-1-carboxamide bis(trifluoroacetate)]					> 0.4	> 0.4	0.102	0.371			
O=C(c1ccccc1)N1Cc2cccc(c2)Nc2ncc(Cl)c(n2)Nc2cccc1c2 [Example C22, 14-Benzoyl-6-chloro-2,4,8,14,22-pentaazatetracyclo[14.3.1.1(3,7).1(9,13)]docosa-1(20),3(22),4,6,9(21),10,12,16,18-nonaene]					0.032	> 0.4	0.024	0.088			
O=C(c1ccccn1)N1Cc2cccc(c2)Nc2ncc(Cl)c(n2)Nc2cccc1c2 [Example C23, 6-Chloro-14-(pyridin-2-ylcarbonyl)-2,4,8,14,22-pentaazatetracyclo[14.3.1.1(3,7).1(9,13)]docosa-1(20),3(22),4,6,9(21),10,12,16,18-nonaene]					0.281	> 10	0.162	1.14			
NS(=O)(=O)N1CCN(C(=O)COc2ccc3cc2CCc2cncc(c2)Nc2ncc(Cl)c(n2)N3)CC1 [Example D268, 4-({[6-Chloro-2,4,8,18,22-pentaazatetracyclo[14.3.1.1(3,7).1(9,13)]docosa-1(20),3(22),4,6,9(21),10,12,16,18-nonaen-12-yl]oxy}acetyl)piperazine-1-sulfonamide bis(trifluoroacetate)]	0.036	> 0.4	0.015	0.049							
Cc1nc(CC(=O)Nc2ccc3cc2CCc2cccc(c2)Nc2ncc(Cl)c(n2)N3)cs1 [Example C38, N-[6-Chloro-2,4,8,22-tetraazatetracyclo[14.3.1.1(3,7).1(9,13)]docosa-1(20),3(22),4,6,9(21),10,12,16,18-nonaen-12-yl]-2-(2-methyl-1,3-thiazol-4-yl)acetamide trifluoroacetate]					0.047	1.07	0.037	0.039			
O=C(Nc1ccc2cc1CCc1cccc(c1)Nc1ncc(Cl)c(n1)N2)C1CCN(C(=O)Nc2ccc(Cl)nc2)CC1 [Example A40, N(1)-(6-Chloropyridin-3-yl)-N(4)-[6-chloro-2,4,8,22-tetraazatetracyclo[14.3.1.1(3,7).1(9,13)]docosa-1(20),3(22),4,6,9(21),10,12,16,18-nonaen-12-yl]piperidine-1,4-dicarboxamide bis(trifluoroacetate)]								0.018	0.015	0.03	0.016
O=C(Nc1ccccc1)N1CCC(COc2ccc3cc2CCc2cncc(c2)Nc2ncc(Cl)c(n2)N3)CC1 [Example D228, 4-({[6-Chloro-2,4,8,18,22-pentaazatetracyclo[14.3.1.1(3,7).1(9,13)]docosa-1(20),3(22),4,6,9(21),10,12,16,18-nonaen-12-yl]oxy}methyl)-N-phenylpiperidine-1-carboxamide bis(trifluoroacetate)]	0.371	> 0.4	> 0.4	> 0.4							
Clc1cnc2nc1Nc1cccc(c1)OCCc1cc(CN3CCNCC3)cc(c1)N2 [Example D191, 6-Chloro-19-(piperazin-1-ylmethyl)-14-oxa-2,4,8,23-tetraazatetracyclo[15.3.1.1(3,7).1(9,13)]tricosa-1(21),3(23),4,6,9(22),10,12,17,19-nonaene tris(trifluoroacetate)]	0.0014	0.0057	0.034	0.0089							
O=C(COc1ccc2cc1CCc1cncc(c1)Nc1ncc(Cl)c(n1)N2)N1CCN(c2ccccn2)CC1 [Example D231, 6-Chloro-12-[2-oxo-2-(4-pyridin-2-ylpiperazin-1-yl)ethoxy]-2,4,8,18,22-pentaazatetracyclo[14.3.1.1(3,7).1(9,13)]docosa-1(20),3(22),4,6,9(21),10,12,16,18-nonaene tris(trifluoroacetate)]	0.217	> 0.4	0.052	> 0.4							
Cc1cc(C(=O)N2CCC(CC(=O)Nc3ccc4cc3CCc3cccc(c3)Nc3ncc(C)c(n3)N4)CC2)no1 [Example C54, 2-{1-[(5-Methylisoxazol-3-yl)carbonyl]piperidin-4-yl}-N-[6-methyl-2,4,8,22-tetraazatetracyclo[14.3.1.1(3,7).1(9,13)]docosa-1(20),3(22),4,6,9(21),10,12,16,18-nonaen-12-yl]acetamide trifluoroacetate]					0.199	> 0.2	0.065	0.199			

Source: US8871753B2, “Macrocyclic compounds and their use as kinase inhibitors” (Incyte Corporation, priority 2008, dated 2014)
